For assay [1], the system named is HEK293 cells cotransfected with the FOP control vector. Put plainly: HEK293 FOP assay (control reporter with non-functional TCF elements). The class given is cell-based. Conditions: Homo sapiens, 16 hours. Summed up: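 Compound series from 50 μM down to 15 nM, prediluted in DMSO then 50-fold into CAFTY buffer (pH 7.4, 2 mM Ca2+, 0.01% BSA), tested alongside TOP cells on a Geneticin-selected HEK293 FOP line whose TCF elements are replaced by a random sequence; recombinant human Wnt-3a applied at 2500-5 ng/ml.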

The target in another assay is T1, TNKS1 (Homo sapiens, UniProt O95271).
T1 construct: purchased BPS Bioscience, San Diego, USA 80579 (TNKS1 Histone Ribosylation Assay Kit)
T1 sequence (O95271 1-1327): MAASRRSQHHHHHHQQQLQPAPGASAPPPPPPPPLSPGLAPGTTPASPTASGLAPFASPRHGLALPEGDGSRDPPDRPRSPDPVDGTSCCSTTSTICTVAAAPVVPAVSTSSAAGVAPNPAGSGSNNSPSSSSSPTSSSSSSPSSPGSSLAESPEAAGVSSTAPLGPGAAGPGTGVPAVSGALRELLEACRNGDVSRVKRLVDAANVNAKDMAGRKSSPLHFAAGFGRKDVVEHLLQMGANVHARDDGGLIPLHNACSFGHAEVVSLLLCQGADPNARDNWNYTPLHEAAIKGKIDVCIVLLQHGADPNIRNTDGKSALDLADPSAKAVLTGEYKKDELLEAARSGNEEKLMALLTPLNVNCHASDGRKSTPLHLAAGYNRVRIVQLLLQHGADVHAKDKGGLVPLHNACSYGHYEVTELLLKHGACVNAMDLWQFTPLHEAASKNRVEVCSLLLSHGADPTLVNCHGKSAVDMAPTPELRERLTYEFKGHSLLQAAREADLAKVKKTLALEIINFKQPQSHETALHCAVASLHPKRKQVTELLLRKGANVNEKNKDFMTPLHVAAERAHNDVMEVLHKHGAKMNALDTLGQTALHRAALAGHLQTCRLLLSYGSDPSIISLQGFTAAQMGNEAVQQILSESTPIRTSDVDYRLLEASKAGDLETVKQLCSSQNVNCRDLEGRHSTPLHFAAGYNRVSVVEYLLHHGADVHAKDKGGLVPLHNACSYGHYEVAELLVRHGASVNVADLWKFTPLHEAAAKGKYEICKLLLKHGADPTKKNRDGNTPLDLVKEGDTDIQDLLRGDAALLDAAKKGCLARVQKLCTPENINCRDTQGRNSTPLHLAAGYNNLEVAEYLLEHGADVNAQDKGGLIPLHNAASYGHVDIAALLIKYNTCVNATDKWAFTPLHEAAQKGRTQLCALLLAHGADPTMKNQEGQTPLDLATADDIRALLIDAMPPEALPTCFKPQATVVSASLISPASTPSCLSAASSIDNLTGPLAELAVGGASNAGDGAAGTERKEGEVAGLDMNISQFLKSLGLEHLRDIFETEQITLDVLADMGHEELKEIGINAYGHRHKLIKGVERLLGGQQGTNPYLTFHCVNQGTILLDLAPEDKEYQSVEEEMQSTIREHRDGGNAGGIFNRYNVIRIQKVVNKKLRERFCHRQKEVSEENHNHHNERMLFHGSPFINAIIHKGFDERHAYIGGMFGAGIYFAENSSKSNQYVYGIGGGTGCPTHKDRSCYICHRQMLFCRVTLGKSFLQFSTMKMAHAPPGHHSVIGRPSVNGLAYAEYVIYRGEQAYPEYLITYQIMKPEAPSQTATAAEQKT
Put plainly: TNKS1 Assay B (auto-parsylation, [3H]-NAD+ SPA). Type of assay: biochemical. Conditions: 6 nM TNKS1, auto-parsylation, over night at room temperature.

Structures are written as SMILES. Some results are limits rather than exact numbers.

With `CNC(=O)c1nc[nH]c1C(=O)N[C@H]1CC[C@H](C(=O)Nc2cc(C(F)(F)F)ccc2Cl)CC1` [Example 142, N^5-(trans-4-{[2-chloro-5-(trifluoromethyl)phenyl]carbamoyl}cyclohexyl)-N^4-methyl-1H-imidazole-4,5-dicarboxamide], the IC50 in assay [1] came out at 41 µM; against TNKS1 it was 0.093 µM.
Take `O=C(N[C@H]1CC[C@@]2(CCN(c3ccc(F)cc3Cl)C2=O)CC1)c1cnn2cccnc12` [Example 136, N-[(trans)-2-(2-chloro-4-fluorophenyl)-1-oxo-2-azaspiro[4.5]dec-8-yl]pyrazolo[1,5-a]pyrimidine-3-carboxamide]: the IC50 in assay [1] is no less than 50 µM; on TNKS1, 0.013 µM.
Consider `CNC(=O)c1nc[nH]c1C(=O)N[C@H]1CC[C@H](C(=O)Nc2cc(OC)c(OC)cc2Cl)CC1` [Example 5, N^5-{trans-4-[(2-chloro-4,5-dimethoxyphenyl)carbamoyl]cyclohexyl}-N^4-methyl-1H-imidazole-4,5-dicarboxamide], for which the IC50 is no less than 50 µM in assay [1] and 0.15 µM against TNKS1.
For `CC1CCN(CCNC(=O)c2nc[nH]c2C(=O)N[C@H]2CC[C@@]3(CCN(c4ccc(F)cc4Cl)C3=O)CC2)CC1` [Example 160, N^5-[(trans)-2-(2-chloro-4-fluorophenyl)-1-oxo-2-azaspiro[4.5]dec-8-yl]-N^4-[2-(4-methylpiperidin-1-yl)ethyl]-1H-imidazole-4,5-dicarboxamide], the IC50 in assay [1] is no less than 50 µM; on TNKS1 it was 0.008 µM.
Consider `Cc1cc(C)n2ncc(C(=O)N[C@H]3CC[C@H](C(=O)Nc4c(F)cc(F)cc4Cl)CC3)c2n1` [Example 135, N-{trans-4-[(2-chloro-4,6-difluorophenyl)carbamoyl]cyclohexyl}-5,7-dimethylpyrazolo[1,5-a]pyrimidine-3-carboxamide], for which the IC50 in assay [1] was no less than 50 µM; on TNKS1, 0.048 µM.
For `COCCNC(=O)c1nc[nH]c1C(=O)N[C@H]1CC[C@@]2(CCN(c3ccc(F)cc3Cl)C2=O)CC1` [Example 163, N^5-[(trans)-2-(2-chloro-4-fluorophenyl)-1-oxo-2-azaspiro[4.5]dec-8-yl]-N^4-(2-methoxyethyl)-1H-imidazole-4,5-dicarboxamide] the same measures were no less than 50 µM and 0.013 µM.
For the compound `Cc1cc(C)n2ncc(C(=O)N[C@H]3CC[C@H](C(=O)Nc4cc(F)c(F)cc4Cl)CC3)c2n1` [Example 134, N-{trans-4-[(2-chloro-4,5-difluorophenyl)carbamoyl]cyclohexyl}-5,7-dimethylpyrazolo[1,5-a]pyrimidine-3-carboxamide], the IC50 is no less than 50 µM in assay [1] and 0.074 µM against TNKS1.
For the compound `Cc1cc(C)n2ncc(C(=O)NC34CCC(C(=O)Nc5cc(C)c(F)cc5Cl)(CC3)CC4)c2n1` [Example 126, N-{4-[(2-chloro-4-fluoro-5-methylphenyl)carbamoyl]bicyclo[2.2.2]oct-1-yl}-5,7-dimethylpyrazolo[1,5-a]pyrimidine-3-carboxamide], the IC50 was no less than 50 µM in assay [1] and 0.082 µM at TNKS1.
For `CNC(=O)c1[nH]cnc1C(=O)N[C@H]1CC[C@@]2(CCN(c3ccc(F)cc3Cl)C2=O)CC1` [Example 140, N^4-[(trans)-2-(2-chloro-4-fluorophenyl)-1-oxo-2-azaspiro[4.5]dec-8-yl]-N^5-methyl-1H-imidazole-4,5-dicarboxamide] the same measures were no less than 50 µM and 0.012 µM.
For `O=C(N[C@H]1CC[C@H](C(=O)Nc2ccncc2Cl)CC1)c1cnc2cccnn12` [Example 103, N-{trans-4-[(3-chloropyridin-4-yl)carbamoyl]cyclohexyl}imidazo[1,2-b]pyridazine-3-carboxamide] the same measures were 27 µM and 0.52 µM.
As to `O=C(NCCN1CCCCC1)c1nc[nH]c1C(=O)N[C@H]1CC[C@H](C(=O)Nc2cc(F)c(F)cc2Cl)CC1` [Example 4, N^5-{trans-4-[(2-chloro-4,5-difluorophenyl)carbamoyl]cyclohexyl}-N^4-[2-(piperidin-1-yl)ethyl]-1H-imidazole-4,5-dicarboxamide], the IC50 in assay [1] was no less than 50 µM; against TNKS1, 0.0022 µM.
As to `CNC(=O)c1[nH]cnc1C(=O)NC12CCC(C(=O)Nc3c(F)cc(F)cc3Cl)(CC1)CC2` [Example 116, N^4-{4-[(2-chloro-4,6-difluorophenyl)carbamoyl]bicyclo[2.2.2]oct-1-yl}-N^5-methyl-1H-imidazole-4,5-dicarboxamide], the IC50 in assay [1] was determined as 8.7 µM; on TNKS1, 0.58 µM.
For the compound `Cc1cc(NC(=O)C23CCC(NC(=O)c4cnn5cccnc45)(CC2)CC3)c(Cl)cc1F` [Example 118, N-{4-[(2-chloro-4-fluoro-5-methylphenyl)carbamoyl]bicyclo[2.2.2]oct-1-yl}pyrazolo[1,5-a]pyrimidine-3-carboxamide], the IC50 was no less than 50 µM in assay [1] and 0.089 µM against TNKS1.
As for `O=C(N[C@H]1CC[C@@]2(CCN(c3ccc(F)cc3Cl)C2=O)CC1)c1cnc2cccnn12` [Example 138, N-[(trans)-2-(2-chloro-4-fluorophenyl)-1-oxo-2-azaspiro[4.5]dec-8-yl]imidazo[1,2-b]pyridazine-3-carboxamide], the IC50 in assay [1] is no less than 50 µM; against TNKS1, 0.022 µM.
As to `CNC(=O)c1nc[nH]c1C(=O)N[C@H]1CC[C@H](C(=O)Nc2ncncc2Cl)CC1` [Example 147, N^5-{trans-4-[(5-chloropyrimidin-4-yl)carbamoyl]cyclohexyl}-N^4-methyl-1H-imidazole-4,5-dicarboxamide], the IC50 in assay [1] was no less than 50 µM; at TNKS1, 0.15 µM.
In the same order, the values of `O=C(N[C@H]1CC[C@H](C(=O)Nc2c(F)cc(F)cc2Cl)CC1)c1cnc2cccnn12` [Example 133, N-{trans-4-[(2-chloro-4,6-difluorophenyl)carbamoyl]cyclohexyl}imidazo[1,2-b]pyridazine-3-carboxamide] are no less than 50 µM and 0.14 µM.
For `O=C(N[C@H]1CC[C@@]2(CCN(c3ccc(F)cc3Cl)C2=O)CC1)c1[nH]cnc1C(=O)N1CC(F)C1` [Example 166, N-[(trans)-2-(2-chloro-4-fluorophenyl)-1-oxo-2-azaspiro[4.5]dec-8-yl]-4-[(3-fluoroazetidin-1-yl)carbonyl]-1H-imidazole-5-carboxamide] the same measures were no less than 50 µM and 0.0074 µM.
As for `CC(C)(O)CNC(=O)c1nc[nH]c1C(=O)N[C@H]1CC[C@H](C(=O)Nc2cc(C(F)(F)F)ccc2Cl)CC1` [Example 145, N^5-(trans-4-{[2-chloro-5-(trifluoromethyl)phenyl]carbamoyl}cyclohexyl)-N^4-(2-hydroxy-2-methylpropyl)-1H-imidazole-4,5-dicarboxamide], the IC50 was determined as 15 µM in assay [1] and 0.33 µM at TNKS1.
In the case of `O=C(NC1CC1)c1nc[nH]c1C(=O)N[C@H]1CC[C@@]2(CCN(c3ccc(F)cc3Cl)C2=O)CC1` [Example 165, N^5-[(trans)-2-(2-chloro-4-fluorophenyl)-1-oxo-2-azaspiro[4.5]dec-8-yl]-N^4-cyclopropyl-1H-imidazole-4,5-dicarboxamide], the IC50 turned out to be 35 µM in assay [1] and 0.012 µM against TNKS1.
Consider `CNC(=O)c1nc[nH]c1C(=O)N[C@H]1CC[C@H](C(=O)Nc2cc(F)c(F)cc2Cl)CC1` [Example 3, N^5-{trans-4-[(2-chloro-4,5-difluorophenyl)carbamoyl]cyclohexyl}-N^4-methyl-1H-imidazole-4,5-dicarboxamide], for which the IC50 is no less than 50 µM in assay [1] and 0.01 µM against TNKS1.
For `Cc1nc2c(C(=O)N[C@H]3CC[C@H](C(=O)Nc4ccc(F)cc4Cl)CC3)cnn2c2c1CCC2` [Example 113, N-{trans-4-[(2-chloro-4-fluorophenyl)carbamoyl]cyclohexyl}-5-methyl-7,8-dihydro-6H-cyclopenta[e]pyrazolo[1,5-a]pyrimidine-3-carboxamide], the IC50 is no less than 50 µM in assay [1] and 0.11 µM against TNKS1.

For orientation: IC50 means the concentration that gives 50% inhibition. The low end stands for greater potency, the high end for weaker potency.

These data come from patent US20180148418A1, “AMIDO-SUBSTITUTED CYCLOHEXANE DERIVATIVES” (Bayer Pharma Aktiengesellschaft, priority 2015, published 2018).
